Assay results as given in patent US20080051330A1, “Inhibitors of serine protease activity, methods and compositions for treatment of herpes viruses” (priority 1999, published 2008).
* marks the point of attachment. Cbz = O=C(OCc1ccccc1)*; CHN2 = [N-]=[N+]=C*

B1: Cystatin C: human cysteine proteinase inhibitor present in extracellular fluids (protein, UniProt P01034 27-146, looked up)
Cystatin-C: SSPGKPPRLVGGPMDASVEEEGVRRALDFAVGEYNKASNDMYHSRALQVVRARKQIVAGVNYFLDVELGRTTCTKTQPNLDNCPFHDQPHLKRKAFCSFQIYAVPWQGTMTLSKSTCQDA

Legend:
[1] = test system: Herpes simplex virus-2, strain MS; assay type: in vivo, SCID mouse; details: SCID mice; for survival rate: HSV-2 at 1000 times LD50 on abraded skin, topical, three times daily for 7 days from 2 hours after inoculation, compound 100 mg/kg, untreated control 20%
HSV [2] = assay: Activity against HSV in vitro: ELISA with rabbit anti-HSV antibody in infected human lung fibroblast cells; assay type: cell-based, HSV-1 and HSV-2; details: HLF cells, virus absorbed in presence or absence of AAT
CMV = assay: Activity against CMV in vitro: plaque reduction assay in human lung fibroblast cells; assay type: cell-based; details: HLF cells, plaques counted day 6-10 post-infection
HSV [3] = details: at molar concentration lower than that of acyclovir; cited from earlier work

Row | Molecule | survival rate [1] | effect on HSV by ELISA, optical density expressed as percent of control (HSV [2]) | reduction in number of CMV plaques (CMV) | percentage of mice surviving, in words, relative to vehicle control ([1]; HSV-2 at 1000 times LD50) | inhibitory effect on HSV replication (HSV [3])
1 | Nc1nc2c(ncn2COCCO)c(=O)[nH]1 [acyclovir, reference compound] | about 60% |  |  |  | 
2 | AAT: glycoprotein of MW 51,000 with 394 amino acids and 3 oligosaccharide side chains; serine protease inhibitor | about 60% | significant inhibitory effect | significant inhibitory effect | significantly greater | 
3 | Cbz-Leu-Val-Gly-CHN2 [reference compound] |  |  |  |  | strong inhibitory effects
4 | B1 |  |  |  |  | strong inhibitory effects
